Experimental data as given in patent publication US20240066152A1, “CONTRAST AGENT FOR DETECTING CARTILAGE DAMAGE AND METHOD AND PROGRAM FOR EXAMINING CARTILAGE DAMAGE USING SAID CONTRAST AGENT” (NATIONAL UNIVERSITY CORPORATION HOKKAIDO UNIVERSITY, priority 2020, published 2024).

Tested on: articular cartilage of the rabbit knee joint (both femoral condyles), ACLT model
Assay: MRI evaluation of articular cartilage damage in the anterior cruciate ligament transection (ACLT) model using ^17O-labeled water
Type: in vivo, Japanese white rabbits
Description: An ACLT model was created using 14-week-old male Japanese white rabbits to induce cartilage damage in the knee joint. The rabbits were anesthetized intravenously with pentobarbital (30 mg/kg) and ketamine (50 mg/kg), followed by inhalation anesthesia with isoflurane (1 to 4%) for maintenance anesthesia. The anterior surface of the knee joint on the operative side was shaved, was disinfected with povidone-iodine, and then an analgesic (buprenorphine 0.02 mg/kg) was subcutaneously administered by injection. Skin incision of about 5 cm was placed on the medial side of the patella, and the joint capsule was incised in a similar position. The patella was dislocated laterally, and the knee joint was deeply flexed to expose the anterior cruciate ligament of the femoral intercondylar part, which was separated using a No. 11 scalpel. After washing the inside of the joint with a physiological saline solution, the joint capsule and the skin were sutured using 3-0 nylon thread. Postoperatively, euthanasia was performed if wound infection was observed or in the case of an inability to stand.
It has been reported that in the ACLT model, degeneration of cartilage surface begins at 4 weeks postoperatively and occurs in the entire cartilage layer from 8 weeks postoperatively (Makoto Yoshioka et al. Characterization of a model of osteoarthritis in the rabbit knee. Osteoarthritis and Cartilage, 1996, 4 (2): 87-98), and thus five rabbits were slaughtered and euthanized with pentobarbital (200 mg/kg) each at 4 weeks and 8 weeks postoperatively, and cartilage damage was evaluated by MRI and macroscopically and histologically.
MRI Imaging Using a 3T-MRI apparatus (MAGNETOM Prisma, Siemens), imaging of the rabbit knee joint on the operative side was performed. The affected rabbit limb was disarticulated at the thigh and was fixed at the knee joint extension to avoid the influence of body movement during imaging. A 24G Surflo needle was inserted from the anterior surface of the knee joint through the patellar tendon and was indwelled in the joint. […]

^17O-labeled water
change over time in ^17O concentration in ROI 1 and ROI 2 (damaged cartilage region) (immediately after administration (fourth imaging), calculated from average T2-weighted signal values in each ROI, 4 weeks postoperatively): showed an increase in the ^17O concentration
^17O concentration (^17O map calculated from signal values of T2-weighted image) (representative case 4 weeks postoperatively, about 11 minutes after administration (sixth imaging), 0.5 ml saline containing 20-mol % ^17O-labeled water into knee joint of disarticulated limb): higher in the region where cartilage damage was observed
change over time in ^17O concentration in ROI 3 and ROI 4 (normal cartilage region) (with administration of ^17O-labeled water, calculated from average T2-weighted signal values in each ROI, 4 weeks postoperatively): showed no tendency of an increase in the ^17O concentration
